Values quoted from earlier work, collected in patent US4384994A, “Renin inhibitory peptides” (Merck & Co., Inc., priority 1981, dated 1983).

How the values were obtained:
hog renin = settings: nephrectomized rats, after injection of hog renin; Gross et al. 1971
pepsin = pepsin (Homo sapiens, UniProt P0DJD8); settings: Umezawa et al. 1970
Sequence of pepsin (P0DJD8 63-388): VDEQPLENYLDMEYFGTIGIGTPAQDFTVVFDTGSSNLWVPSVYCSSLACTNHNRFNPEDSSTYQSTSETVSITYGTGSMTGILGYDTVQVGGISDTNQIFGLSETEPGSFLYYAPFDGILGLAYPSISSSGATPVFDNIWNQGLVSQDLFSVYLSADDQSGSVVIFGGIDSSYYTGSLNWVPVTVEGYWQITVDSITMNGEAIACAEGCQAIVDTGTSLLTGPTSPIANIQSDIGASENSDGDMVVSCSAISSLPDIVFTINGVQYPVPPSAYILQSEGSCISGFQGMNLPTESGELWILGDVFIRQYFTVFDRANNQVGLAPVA

In the case of pepstatin, the “blood pressure in vivo” value (hog renin) is given as “reduce blood pressure” and the inhibition of pepsin (pepsin) is given as “inhibitor”.
